Assays:
active RON (pTyr-RON) = test: Western blotting of active RON in KM12C; type: cell-based, human
Experimental: The cell killing efficacy of Example 18 and Comparative Example 1 was analyzed, and then the cells were collected. Western blotting was performed to identify inhibitory capacity of Example 18 on active RON. RIPA Lysis Buffer (T&I) was added to the respective cells so as to achieve lysis. Then, BCA kit (Pierce) was used to quantify proteins. The proteins were loaded onto 6% SDS-polyacrylamide with a protein concentration of 40 μg, and electrophoresis was performed at 125 V.
Subsequently, the proteins were reacted with primary antibody (active RON, beta actin), which was diluted 1:1,000 in 5% non-fat skim milk-TBST solution, at 4° C. for 24 hours or 48 hours. Then, washing with TBST was performed three times. The resultant was reacted with anti-rabbit and anti-mouse IgG conjugated horseradish peroxidase (HRP) secondary antibody, which was diluted at 1:1,000, at room temperature for 2 hours. Then, washing with TBST was washed three times. Subsequently, the membrane was treated with the ECL solution (GE Healthcare), and developed by exposure to an X-ray film. Then, the bands were checked.

RON mutant (Δ160) = target: T1, RON mutant (Δ160) (Homo sapiens, UniProt Q04912); test: Kinase assay for RON mutant Δ160 in transfected Colo320HSR (immunoprecipitation, Western blotting); type: cell-based; details: Colo320HSR transfected with RONΔ160, 2 hours of drug treatment
T1 construct: expressed in transfected cells; host or cells: Colo320HSR (RON-negative colon cancer cell line)
Experimental: (§1) As a way capable of replacing RON mutant, each of the mutants (Δ160, Δ155) was transfected into Colo320HSR, a RON-negative cell line, and the cell line was subjected to treatment with Example 18 or Comparative Example 1 at respective concentrations. Then, it was checked, through immunoprecipitation and Western blotting, whether expression of active RON decreases. The detailed method is as follows. The RON-negative Colo320SHR colon cancer cell line was transfected with 12 ug of each of RONΔ160 and RON Δ155 using lipofectamine 2000 (Invitrogen, cat #11668-019). For the same transfection efficiency, after 24 hours, the transformed strains were dispensed into a 60-mm dish. 48 hours after transfection, treatment with drugs of Comparative Example 1 and Example 18 was performed, respectively, in a dose-dependent manner. After 2 hours of drug treatment, the cells were collected and washed with PBS. Then, the washed cells were lysed with RIPA Lysis Buffer (T&I, cat #BRI-9001).
(§2) Protein concentrations were quantified using the Bradford (BioRad, cat #5000205) method. […]
(§3) Electrophoresis was performed using SDS-PAGE, and then proteins were transferred to PVDF membrane. […] The developed film was analyzed with densitometry using Image-J, and then IC50 was calculated using Graphpad Prism (GraphPad Software, Inc.).

RON mutant (Δ155) = test: Kinase assay for RON mutant Δ155 in transfected Colo320HSR (immunoprecipitation, Western blotting); type: cell-based; details: Colo320HSR transfected with RONΔ155, 2 hours of drug treatment
Experimental: as §1, §2, §3

[1] = system: KM12C cell line carrying RON mutant (Δ160); test: Action mechanism in KM12C, Western blotting of related proteins; type: cell-based, human; details: 1 μM, 5 μM, 48 hours
Experimental: KM12C cell line was seeded at 5×10^5 cells onto a 100-mm plate. Then, after 24 hours, the cells were subjected to treatment with Example 18 at respective concentrations (1 μM, 5 μM) for 48 hours. After 48 hours, the cells and cell suspensions were collected (1,500 rpm, 3 minutes), and changes in expression of related proteins were checked with Western blotting. RIPA Lysis Buffer (T&I) was added to the respective cells so as to achieve lysis. Then, BCA kit (Pierce) was used to quantify proteins. Then, the proteins were loaded onto 8% SDS-polyacrylamide, and electrophoresis was performed at 125 V.
Then, blocking was performed with 5% non-fat skim milk-TBST solution for 1 hour. Subsequently, the proteins were reacted with primary antibodies, which were diluted 1:1,000 in 5% non-fat skim milk-TBST solution, at 4° C. for 24 hours or 48 hours. Then, washing with TBST was performed three times. The resultant was reacted with anti-rabbit and anti-mouse IgG conjugated HRP secondary antibodies, which were diluted at 1:1,000, at room temperature for 2 hours. Then, washing with TBST was performed three times. Subsequently, the membrane was treated with the ECL solution (GE Healthcare), and developed by exposure to an X-ray film. Then, the bands were checked.

[2] = system: colon cancer patient tissue (active RON/RON mutant #1: Δ160); test: Efficacy in animal model transplanted with colon cancer patient tissue, 30 mpk; type: in vivo; details: 30 mpk for 4 weeks
Experimental: Example 18 and Comparative Example 1 were administered to an animal model transplanted with the same patient tissue (active RON/RON mutant #1: Δ160) cells as in the animal model transplanted with colon cancer patient tissue tumor cells at 30 mpk for 4 weeks. […] The lower pictures of FIG. 21 show tumors extracted from representative individuals of the respective groups.

T1 sequence (Q04912 25-1294 isoform Q04912-7 limits assumed): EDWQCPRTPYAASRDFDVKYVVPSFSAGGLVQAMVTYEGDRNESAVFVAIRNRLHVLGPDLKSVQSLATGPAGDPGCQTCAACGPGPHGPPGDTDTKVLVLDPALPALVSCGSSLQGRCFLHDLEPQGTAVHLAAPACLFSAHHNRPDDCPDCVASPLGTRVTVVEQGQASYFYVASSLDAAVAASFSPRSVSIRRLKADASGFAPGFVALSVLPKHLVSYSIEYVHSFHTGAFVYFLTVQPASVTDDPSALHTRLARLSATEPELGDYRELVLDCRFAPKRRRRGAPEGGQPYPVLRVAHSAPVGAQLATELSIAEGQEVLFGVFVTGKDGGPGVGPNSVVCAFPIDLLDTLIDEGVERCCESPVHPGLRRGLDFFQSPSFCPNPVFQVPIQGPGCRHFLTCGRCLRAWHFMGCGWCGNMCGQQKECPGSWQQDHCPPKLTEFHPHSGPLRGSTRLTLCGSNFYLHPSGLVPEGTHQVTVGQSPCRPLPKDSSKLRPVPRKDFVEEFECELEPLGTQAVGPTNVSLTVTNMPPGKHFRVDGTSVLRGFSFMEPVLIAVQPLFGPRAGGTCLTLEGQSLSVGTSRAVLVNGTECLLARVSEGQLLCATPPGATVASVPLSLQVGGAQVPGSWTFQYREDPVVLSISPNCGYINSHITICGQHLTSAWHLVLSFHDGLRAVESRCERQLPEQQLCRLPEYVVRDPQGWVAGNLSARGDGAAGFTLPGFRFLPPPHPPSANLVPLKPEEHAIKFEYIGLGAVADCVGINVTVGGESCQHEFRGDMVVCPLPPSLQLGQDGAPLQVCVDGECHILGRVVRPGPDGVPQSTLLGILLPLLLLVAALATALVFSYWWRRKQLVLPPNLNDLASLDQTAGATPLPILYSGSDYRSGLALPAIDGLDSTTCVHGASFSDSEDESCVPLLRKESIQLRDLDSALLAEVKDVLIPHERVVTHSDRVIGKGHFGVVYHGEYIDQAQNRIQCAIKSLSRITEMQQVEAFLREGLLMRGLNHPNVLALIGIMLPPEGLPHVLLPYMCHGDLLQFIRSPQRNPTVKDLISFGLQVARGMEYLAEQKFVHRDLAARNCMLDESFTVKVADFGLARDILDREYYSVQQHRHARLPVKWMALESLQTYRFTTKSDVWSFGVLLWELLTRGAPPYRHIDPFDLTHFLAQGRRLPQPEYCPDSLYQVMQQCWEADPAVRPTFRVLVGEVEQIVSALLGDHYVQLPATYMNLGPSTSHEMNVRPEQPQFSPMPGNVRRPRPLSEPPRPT
T1 sequence (Q04912 25-304 partner limits assumed): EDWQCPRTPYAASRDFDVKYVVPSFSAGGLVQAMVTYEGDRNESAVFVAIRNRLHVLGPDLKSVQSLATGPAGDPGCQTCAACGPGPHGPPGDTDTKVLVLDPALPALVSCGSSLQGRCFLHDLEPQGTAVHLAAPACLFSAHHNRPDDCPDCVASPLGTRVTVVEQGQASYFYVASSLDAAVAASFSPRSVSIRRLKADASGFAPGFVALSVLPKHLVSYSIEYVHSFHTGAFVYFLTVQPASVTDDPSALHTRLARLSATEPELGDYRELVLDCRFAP

CCOc1ccn(-c2ccc(F)cc2)c(=O)c1C(=O)Nc1ccc(Oc2ccnc3cc(-c4ccc(CN5CCOCC5)cn4)sc23)c(F)c1.Cl [Example 18, 4-ethoxy-N-[3-fluoro-4-({2-[5-(morpholinomethyl)pyridin-2-yl]thieno[3,2-b]pyridine-7-yl}oxy)phenyl]-1-(4-fluorophenyl)-2-oxo-1,2-dihydropyridine-3-carboxamide hydrochloride]
expression of active RON (Western blotting) (active RON (pTyr-RON)): decreases
inhibition of RON activity (degree of active RON) (RON mutant (Δ160)): high inhibition efficacy as compared with Comparative Example 1
inhibition of RON activity (degree of active RON) (RON mutant (Δ155)): high inhibition efficacy as compared with Comparative Example 1
active RON (Western blotting) [1]: decreases
p-ERK, p-Src, p-Akt, and p-Gab1 (Western blotting) [1]: decrease
tumor growth inhibition efficacy [2]: about 73%
